Laboratory results taken from ChEMBL document CHEMBL5465560, “Selectivity Literature for EUbOPEN Chemogenomic Library” (2024).
Each block holds one compound with its values, some of them ahead of it.

Legend:
[1] = target: Mitogen-activated protein kinase kinase kinase 8 (Homo sapiens, UniProt P41279); experiment: Selectivity interaction (Kinase panel (Z-LYTE Assay)) EUB0001632a MAP3K8; conditions: at 10 µM
[2] = target: T1, Cyclin-dependent kinase 11A (Homo sapiens) (UniProt Q9UQ88); experiment: Selectivity interaction (ActivX KiNativ screen (kinase selectivity in THP-1 cell lysates)) EUB0000639a CDK11A; format: subcellular; conditions: lysate
T1 sequence (whole entry): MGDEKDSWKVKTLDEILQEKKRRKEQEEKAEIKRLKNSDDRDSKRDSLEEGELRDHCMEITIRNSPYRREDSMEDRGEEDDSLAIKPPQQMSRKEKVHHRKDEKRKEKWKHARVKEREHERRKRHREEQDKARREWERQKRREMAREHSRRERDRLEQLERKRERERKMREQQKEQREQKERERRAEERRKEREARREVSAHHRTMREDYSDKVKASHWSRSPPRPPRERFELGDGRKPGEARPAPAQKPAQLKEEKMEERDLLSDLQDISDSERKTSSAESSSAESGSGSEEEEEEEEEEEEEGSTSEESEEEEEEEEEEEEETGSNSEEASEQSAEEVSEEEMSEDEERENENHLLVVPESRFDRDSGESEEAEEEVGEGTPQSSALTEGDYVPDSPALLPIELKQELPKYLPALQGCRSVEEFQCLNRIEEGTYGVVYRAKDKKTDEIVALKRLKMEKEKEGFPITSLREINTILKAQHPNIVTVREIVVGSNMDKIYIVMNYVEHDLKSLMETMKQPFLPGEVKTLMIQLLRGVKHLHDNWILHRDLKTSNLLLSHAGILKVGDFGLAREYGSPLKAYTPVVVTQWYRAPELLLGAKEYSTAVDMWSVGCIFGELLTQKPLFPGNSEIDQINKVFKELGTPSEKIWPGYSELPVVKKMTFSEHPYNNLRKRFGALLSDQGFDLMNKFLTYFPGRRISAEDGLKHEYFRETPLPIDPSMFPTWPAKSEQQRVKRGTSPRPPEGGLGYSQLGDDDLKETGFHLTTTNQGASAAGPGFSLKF

[3] = target: T2, Tyrosine-protein kinase ITK/TSK (Homo sapiens) (UniProt Q08881); conditions: at 10 µM
T2 sequence (whole entry): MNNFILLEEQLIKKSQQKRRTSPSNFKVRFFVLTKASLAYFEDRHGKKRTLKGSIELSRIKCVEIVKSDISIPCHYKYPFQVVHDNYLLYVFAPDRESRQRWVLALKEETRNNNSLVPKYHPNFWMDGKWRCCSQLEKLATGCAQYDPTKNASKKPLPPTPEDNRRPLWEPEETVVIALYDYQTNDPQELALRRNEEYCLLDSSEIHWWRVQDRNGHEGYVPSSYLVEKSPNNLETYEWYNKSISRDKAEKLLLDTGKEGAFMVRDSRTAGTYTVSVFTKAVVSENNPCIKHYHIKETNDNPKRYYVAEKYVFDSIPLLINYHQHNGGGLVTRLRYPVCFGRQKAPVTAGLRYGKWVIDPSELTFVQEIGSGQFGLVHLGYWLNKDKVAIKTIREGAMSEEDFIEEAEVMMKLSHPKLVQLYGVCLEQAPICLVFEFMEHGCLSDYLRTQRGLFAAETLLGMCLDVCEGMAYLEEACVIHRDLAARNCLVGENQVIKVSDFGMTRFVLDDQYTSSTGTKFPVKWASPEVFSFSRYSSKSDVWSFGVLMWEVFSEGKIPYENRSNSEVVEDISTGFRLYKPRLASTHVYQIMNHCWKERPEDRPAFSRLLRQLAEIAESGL

[4] = target: Hepatocyte growth factor-like protein (Homo sapiens) (UniProt P26927); experiment: Selectivity interaction (KinomeScan (DiscoverX)) EUB0000655a MST1; conditions: at 10 µM
[5] = target: T3, Megakaryocyte-associated tyrosine-protein kinase (Homo sapiens) (UniProt P42679); experiment: Selectivity interaction (KinomeScan (DiscoverX)) EUB0000229b MATK; conditions: at 10 µM
T3 sequence (whole entry): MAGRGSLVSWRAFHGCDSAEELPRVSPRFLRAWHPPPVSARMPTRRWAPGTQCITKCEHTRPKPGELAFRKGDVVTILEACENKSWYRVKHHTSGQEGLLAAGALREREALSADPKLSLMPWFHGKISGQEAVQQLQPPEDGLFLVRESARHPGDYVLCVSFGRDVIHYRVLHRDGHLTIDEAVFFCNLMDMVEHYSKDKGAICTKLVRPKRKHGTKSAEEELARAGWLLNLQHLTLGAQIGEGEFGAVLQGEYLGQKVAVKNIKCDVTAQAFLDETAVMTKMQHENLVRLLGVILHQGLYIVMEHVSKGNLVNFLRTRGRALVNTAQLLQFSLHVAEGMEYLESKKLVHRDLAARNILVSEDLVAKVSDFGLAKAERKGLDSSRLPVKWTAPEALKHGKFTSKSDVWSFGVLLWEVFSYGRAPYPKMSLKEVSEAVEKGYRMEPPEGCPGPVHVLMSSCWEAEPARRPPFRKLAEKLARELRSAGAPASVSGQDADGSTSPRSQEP

Chain of Mitogen-activated protein kinase kinase kinase 8 (P41279 whole entry): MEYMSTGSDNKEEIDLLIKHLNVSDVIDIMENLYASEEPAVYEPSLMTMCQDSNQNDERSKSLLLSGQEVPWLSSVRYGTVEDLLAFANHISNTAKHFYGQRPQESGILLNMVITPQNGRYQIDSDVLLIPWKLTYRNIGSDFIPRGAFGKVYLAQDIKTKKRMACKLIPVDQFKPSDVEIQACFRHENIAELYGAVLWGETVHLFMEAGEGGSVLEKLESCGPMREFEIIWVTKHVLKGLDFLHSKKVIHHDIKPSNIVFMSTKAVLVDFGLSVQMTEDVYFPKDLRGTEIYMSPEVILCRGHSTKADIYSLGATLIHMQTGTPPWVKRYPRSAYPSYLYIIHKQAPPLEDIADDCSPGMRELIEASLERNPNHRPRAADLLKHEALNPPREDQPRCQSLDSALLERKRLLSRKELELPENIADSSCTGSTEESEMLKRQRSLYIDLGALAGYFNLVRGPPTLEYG

% of control [1]: 4.18%
Compound: Cn1cc(-n2cnc3c(NCc4nc5cc(Cl)c(Cl)cc5[nH]4)nc(N4CCOCC4)nc32)cn1

% of inhibition ([2]; at 0.01 µM): 10.4%
% of inhibition ([2]; at 0.04 µM): -11.1%
% of inhibition ([2]; at 0.2 µM): 2.6%
% of inhibition ([2]; at 1 µM): 7.8%
% of inhibition ([2]; at 5 µM): 18.7%
Compound: CC[C@@H]1[C@H](F)C(=O)N[C@@H]1COc1nccc2cc(C(N)=O)c(OC)cc12 [ZIMLOVISERTIB]

Compound: COCC(=O)NC/C=C/c1ccc2ncnc(Nc3ccc(Oc4ccc(C)nc4)c(C)c3)c2c1 [CP-724714]
% of control [3]: 92%

Compound: CN(C)CCOc1ccc(-c2nc(-c3ccncc3)c(-c3ccc4c(c3)CC/C4=N\O)[nH]2)cc1
% of control [4]: 100%

Compound: COc1cc(N(C)c2ccnc3ccc(C(F)(F)F)cc23)cc(OC)c1OC
% binding [5]: 81%
